Reference: PMC8880564, “Design, Synthesis, and Biological Evaluation of a Novel VEGFR-2 Inhibitor Based on a 1,2,5-Oxadiazole-2-Oxide Scaffold with MAPK Signaling Pathway Inhibition” (Pharmaceuticals, 2022)

What was measured:
Assay in all cases: NCI-60 one-dose SRB screening
Assay type in all cases: cell-based
NCI-H226 = conditions: Homo sapiens, NCI-H226, Non-Small Cell Lung Cancer, 10 µM one dose, 48 h, read-out: growth percentage
CCRF-CEM = conditions: Homo sapiens, Leukemia, 10 µM one dose, 48 h, read-out: growth percentage
HS 578T = conditions: Homo sapiens, Breast Cancer, 10 µM one dose, 48 h, read-out: growth percentage
SR = conditions: Homo sapiens, Leukemia, 10 µM one dose, 48 h, read-out: growth percentage
SF-268 = conditions: Homo sapiens, SF-268, CNS Cancer, 10 µM one dose, 48 h, read-out: growth percentage
SF-539 = conditions: Homo sapiens, SF-539, CNS Cancer, 10 µM one dose, 48 h, read-out: growth percentage
EKVX = conditions: Homo sapiens, Non-Small Cell Lung Cancer, 10 µM one dose, 48 h, read-out: growth percentage
K-562 = conditions: Homo sapiens, K562, K-562, Leukemia, 10 µM one dose, 48 h, read-out: growth percentage
NCI-H23 = conditions: Homo sapiens, NCI-H23, Non-Small Cell Lung Cancer, 10 µM one dose, 48 h, read-out: growth percentage
COLO 205 = conditions: Homo sapiens, COLO 205, Colon Cancer, 10 µM one dose, 48 h, read-out: growth percentage
OVCAR-3 = conditions: Homo sapiens, OVCAR-3, Ovarian Cancer, 10 µM one dose, 48 h, read-out: growth percentage
CAKI-1 = conditions: Homo sapiens, CAKI-1, Renal Cancer, 10 µM one dose, 48 h, read-out: growth percentage
U251 = conditions: Homo sapiens, U-251, U251, CNS Cancer, 10 µM one dose, 48 h, read-out: growth percentage
MDA-MB-231/ATCC = conditions: Homo sapiens, Breast Cancer, 10 µM one dose, 48 h, read-out: growth percentage
UACC-62 = conditions: Homo sapiens, UACC-62, Melanoma, 10 µM one dose, 48 h, read-out: growth percentage
NCI-H460 = conditions: Homo sapiens, NCI-H460, Non-Small Cell Lung Cancer, 10 µM one dose, 48 h, read-out: growth percentage
UO-31 = conditions: Homo sapiens, UO-31, Renal Cancer, 10 µM one dose, 48 h, read-out: growth percentage
DU-145 = conditions: Homo sapiens, DU-145, Prostate Cancer, 10 µM one dose, 48 h, read-out: growth percentage
RXF 393 = conditions: Homo sapiens, RXF 393, Renal Cancer, 10 µM one dose, 48 h, read-out: growth percentage
KM12 = conditions: Homo sapiens, KM12, Colon Cancer, 10 µM one dose, 48 h, read-out: growth percentage
HCC-2998 = conditions: Homo sapiens, HCC-2998, Colon Cancer, 10 µM one dose, 48 h, read-out: growth percentage
RPMI-8226 = conditions: Homo sapiens, RPMI-8226, Leukemia, 10 µM one dose, 48 h, read-out: growth percentage

Row | SMILES | activity at 10 µM (NCI-H226) | activity at 10 µM (CCRF-CEM) | activity at 10 µM (HS 578T) | activity at 10 µM (SR) | activity at 10 µM (SF-268) | activity at 10 µM (SF-539) | activity at 10 µM (EKVX) | activity at 10 µM (K-562) | activity at 10 µM (NCI-H23) | activity at 10 µM (COLO 205) | activity at 10 µM (OVCAR-3) | activity at 10 µM (CAKI-1) | activity at 10 µM (U251) | activity at 10 µM (MDA-MB-231/ATCC) | activity at 10 µM (UACC-62) | activity at 10 µM (NCI-H460) | activity at 10 µM (UO-31) | activity at 10 µM (DU-145) | activity at 10 µM (RXF 393) | activity at 10 µM (KM12) | further results
1 | Cc1nn(-c2ccccc2)c2nc(CNc3ccc(NCc4c(-c5ccccc5)no[n+]4[O-])cc3)[nH]c(=O)c12 [14b, 3-(((4-(((3-methyl-4-oxo-1-phenyl-4,5-dihydro-1H-pyrazolo[3,4-d]pyrimidin-6-yl)methyl)amino)phenyl)amino)methyl)-4-phenyl-1,2,5-oxadiazole 2-oxide] | 101% | 78.8% | 104% | 73% | 84.9% | 99.4% | 83% | 75.8% | 86.6% | 116% | 87.6% | 67.1% | 94.6% | 82.7% | 98.5% | 90% | 72.4% | 90.7% | 108% | 94.5% | activity at 10 µM (HCC-2998): 111%; activity at 10 µM (RPMI-8226): 79%
2 | Cc1nn(-c2ccc(Br)cc2)c2nc(CNc3ccc(NCc4c(-c5ccccc5)no[n+]4[O-])cc3)[nH]c(=O)c12 [14c, 3-(((4-(((1-(4-bromophenyl)-3-methyl-4-oxo-4,5-dihydro-1H-pyrazolo[3,4-d]pyrimidin-6-yl)methyl)amino)phenyl)amino)methyl)-4-phenyl-1,2,5-oxadiazole 2-oxide] | 109% | 105% | 108% | 95.2% | 95.2% | 102% | 98.9% | 111% | 103% | 115% | 93.9% | 90.2% | 99.1% | 96.5% | 105% | 107% | 83.4% | 107% | 117% | 106% | activity at 10 µM (HCC-2998): 112%; activity at 10 µM (RPMI-8226): 112%
3 | Nc1ccc(NCc2c(-c3ccccc3)no[n+]2[O-])cc1 [compound 11, 3-(((4-aminophenyl)amino)methyl)-4-phenyl-1,2,5-oxadiazole 2-oxide] | 114% | 83.4% | 109% | 104% | 101% | 104% | 109% | 99.1% | 105% | 121% | 111% | 108% | 102% | 104% | 95.5% | 101% | 98.9% | 112% | 134% | 103% | activity at 10 µM (HCC-2998): 118%; activity at 10 µM (RPMI-8226): 97.5%
